From ChEMBL document CHEMBL1137226, “Structure modifications of 6-aminoquinolones with potent anti-HIV activity” (J Med Chem, 2004)
In brackets after ≈: the same amount, converted by molar mass.

Columns and labels:
[1] = test system: MT4; assay: Concentration of compound that reduces the viability of mock-infected MT-4 cells by 50%; format: functional; settings: Homo sapiens
[2] = test system: CCRF-CEM; assay: Selectivity index towards HIV-1 (IIIB) in CEM cells; format: functional, Homo sapiens
[3] = Concentration of compound that reduces the viability of mock-infected peripheral blood mononuclear cells by 50%; format: functional; settings: Homo sapiens
[4] = test system: MT4; assay: Concentration required for protection of MT-4 cells from HIV-2 (ROD) induced cytopathogenicity in MTT assay; format: functional, cell-based; settings: Homo sapiens
[5] = Concentration of compound required for reduction of p24 production in HIV-1 (IIIB) infected peripheral blood mononuclear cells; format: functional; settings: Homo sapiens
[6] = test system: CCRF-CEM; assay: Concentration of compound required for protection of CEM cells from HIV-2 (ROD) induced cytopathogenicity; format: functional, cell-based; settings: Homo sapiens
[7] = test system: MT4; assay: Concentration required for protection of MT-4 cells from HIV-1 (IIIB) induced cytopathogenicity in MTT assay; format: functional, cell-based; settings: Homo sapiens
[8] = test system: CCRF-CEM; assay: Concentration of compound required for protection of CEM cells from HIV-1 (IIIB) induced cytopathogenicity; format: functional, cell-based; settings: Homo sapiens
[9] = test system: MT4; assay: Selectivity index towards HIV-1 (IIIB) in MT-4 cells; format: functional, Homo sapiens
[10] = Selectivity index towards HIV-1 (IIIB) in peripheral blood mononuclear cells; format: functional, Homo sapiens
[11] = test system: MT4; assay: Selectivity index towards HIV-2 (ROD) in MT-4 cells; format: functional, Homo sapiens
[12] = test system: CCRF-CEM; assay: Concentration of compound that reduces the viability of mock-infected CEM cells by 50%; format: functional; settings: Homo sapiens
[13] = test system: CCRF-CEM; assay: Selectivity index towards HIV-2 (ROD) in CEM cells; format: functional, Homo sapiens
[14] = test system: MT4; assay: Maximum protection (%) of MT-4 cells from HIV-1 (IIIB) induced cytopathogenicity; value ranges from 60-91%; format: functional, Homo sapiens
[15] = test system: MT4; assay: Maximum protection (%) of MT-4 cells from HIV-2 (ROD) induced cytopathogenicity; value ranges from 51-55%; format: functional, Homo sapiens
[16] = test system: MT4; assay: Maximum protection (%) of MT-4 cells from HIV-1 (IIIB) induced cytopathogenicity; value ranges from 4-8%; format: functional, Homo sapiens
[17] = test system: MT4; assay: Maximum protection (%) of MT-4 cells from HIV-2 (ROD) induced cytopathogenicity; format: functional, Homo sapiens
[18] = test system: MT4; assay: Maximum protection (%) of MT-4 cells from HIV-2 (ROD) induced cytopathogenicity; value ranges from 51-81%; format: functional, Homo sapiens
[19] = test system: MT4; assay: Maximum protection (%) of MT-4 cells from HIV-1 (IIIB) induced cytopathogenicity; value ranges from 25-30%; format: functional, Homo sapiens
[20] = test system: MT4; assay: Maximum protection (%) of MT-4 cells from HIV-2 (ROD) induced cytopathogenicity; value ranges from 58-83%; format: functional, Homo sapiens
[21] = test system: MT4; assay: Maximum protection (%) of MT-4 cells from HIV-1 (IIIB) induced cytopathogenicity; value ranges from 55-118%; format: functional, Homo sapiens
[22] = test system: MT4; assay: Maximum protection (%) of MT-4 cells from HIV-1 (IIIB) induced cytopathogenicity; value ranges from 35-59%; format: functional, Homo sapiens
[23] = test system: MT4; assay: Maximum protection (%) of MT-4 cells from HIV-2 (ROD) induced cytopathogenicity; value ranges from 60-64%; format: functional, Homo sapiens
[24] = test system: MT4; assay: Maximum protection (%) of MT-4 cells from HIV-1 (IIIB) induced cytopathogenicity; value ranges from 57-110%; format: functional, Homo sapiens
[25] = test system: MT4; assay: Maximum protection (%) of MT-4 cells from HIV-2 (ROD) induced cytopathogenicity; value ranges from 43-78%; format: functional, Homo sapiens
[26] = test system: MT4; assay: Maximum protection (%) of MT-4 cells from HIV-2 (ROD) induced cytopathogenicity; value ranges from 15-21%; format: functional, Homo sapiens
[27] = test system: MT4; assay: Maximum protection (%) of MT-4 cells from HIV-1 (IIIB) induced cytopathogenicity; value ranges from 65-86%; format: functional, Homo sapiens
[28] = test system: MT4; assay: Maximum protection (%) of MT-4 cells from HIV-2 (ROD) induced cytopathogenicity; value ranges from 17-27%; format: functional, Homo sapiens
[29] = test system: MT4; assay: Maximum protection (%) of MT-4 cells from HIV-1 (IIIB) induced cytopathogenicity; value ranges from 16-21%; format: functional, Homo sapiens
[30] = test system: MT4; assay: Maximum protection (%) of MT-4 cells from HIV-1 (IIIB) induced cytopathogenicity; value ranges from 7-30%; format: functional, Homo sapiens
[31] = test system: MT4; assay: Maximum protection (%) of MT-4 cells from HIV-2 (ROD) induced cytopathogenicity; value ranges from 17-31%; format: functional, Homo sapiens
[32] = test system: MT4; assay: Maximum protection (%) of MT-4 cells from HIV-1 (IIIB) induced cytopathogenicity; value ranges from 9-24%; format: functional, Homo sapiens

Row | EC50 [5] | EC50 [6] | EC50 [8] | SMILES | CC50 [1] | Selectivity index [2] | CC50 [3] | EC50 [4] | EC50 [7] | Selectivity index [9] | Selectivity index [10] | Selectivity index [11] | CC50 [12] | Selectivity index [13] | further results
1 | 0.04 µg/mL (≈ 0.105 µM) | 0.2 µg/mL (≈ 0.526 µM) | 0.08 µg/mL (≈ 0.21 µM) | Cn1cc(C(=O)O)c(=O)c2cc(N)c(N3CCN(c4cnccn4)CC3)cc21 | 3.98 µg/mL (≈ 10.5 µM) | >1250 | 3.65 µg/mL (≈ 9.59 µM) | 1.54 µg/mL (≈ 4.05 µM) | 0.7 µg/mL (≈ 1.84 µM) | 5.7 | 81 | 2.6 | > 100 µg/mL | >500 | Protection [14]: <91%; Protection [15]: <55%
2 | – | – | – | Cn1cc(C(=O)O)c(=O)c2cc(N)c(N3CCN(c4nc5cc(Cl)ccc5s4)CC3)cc21 | 0.0021 µg/mL (≈ 0.00447 µM) | – | – | > 0.0021 µg/mL | > 0.0021 µg/mL | <1 | – | <1 | – | – | Protection [16]: <8%; Protection [17]: 3%
3 | – | – | – | Cn1cc(C(=O)O)c(=O)c2cc(N)c(N3CCN(c4nc5ccccc5s4)CC3)cc21 | 0.0054 µg/mL (≈ 0.0124 µM) | – | – | 0.0011 µg/mL (≈ 0.00253 µM) | > 0.0054 µg/mL | <1 | – | 5.1 | – | – | Protection [18]: <81%; Protection [19]: <30%
4 | 0.03 µg/mL (≈ 0.0778 µM) | 0.08 µg/mL (≈ 0.208 µM) | 0.06 µg/mL (≈ 0.156 µM) | Cn1cc(C(=O)O)c(=O)c2cc(N)c(N3CCN(c4nccs4)CC3)cc21 | 1.17 µg/mL (≈ 3.04 µM) | >=1667 | 1.3 µg/mL (≈ 3.37 µM) | 0.08 µg/mL (≈ 0.208 µM) | 0.13 µg/mL (≈ 0.337 µM) | 9 | 41 | 14.6 | ≥ 100 µg/mL | >=1250 | Protection [20]: <83%; Protection [21]: <118%
5 | 0.05 µg/mL (≈ 0.132 µM) | 0.06 µg/mL (≈ 0.158 µM) | 0.03 µg/mL (≈ 0.0791 µM) | Cn1cc(C(=O)O)c(=O)c2cc(N)c(N3CCN(c4ccccn4)CC3)cc21 | 0.71 µg/mL (≈ 1.87 µM) | >3333 | 1.45 µg/mL (≈ 3.82 µM) | 0.19 µg/mL (≈ 0.501 µM) | ≥ 0.29 µg/mL | <=2.4 | 28 | 3.7 | > 100 µg/mL | >1667 | Protection [22]: <59%; Protection [23]: <64%
6 | 0.05 µg/mL (≈ 0.112 µM) | 0.2 µg/mL (≈ 0.448 µM) | 0.09 µg/mL (≈ 0.202 µM) | Cn1cc(C(=O)O)c(=O)c2cc(N)c(N3CCN(c4cccc(C(F)(F)F)c4)CC3)cc21 | 2.18 µg/mL (≈ 4.88 µM) | 89 | 1.55 µg/mL (≈ 3.47 µM) | ≥ 0.31 µg/mL | 0.31 µg/mL (≈ 0.694 µM) | 7 | 28 | <=7 | 8 µg/mL (≈ 17.9 µM) | 40 | Protection [24]: <110%; Protection [25]: <78%
7 | 0.04 µg/mL (≈ 0.0954 µM) | 0.02 µg/mL (≈ 0.0477 µM) | 0.01 µg/mL (≈ 0.0238 µM) | Cn1cc(C(=O)O)c(=O)c2cc(N)c(N3CCN(c4nc5ccccc5o4)CC3)cc21 | 0.09 µg/mL (≈ 0.215 µM) | 220 | 1.12 µg/mL (≈ 2.67 µM) | 0.0087 µg/mL (≈ 0.0207 µM) | 0.01 µg/mL (≈ 0.0238 µM) | 6.5 | 26 | 11.3 | 2.2 µg/mL (≈ 5.25 µM) | 110 | Protection [26]: <21%; Protection [27]: <86%
8 | – | – | – | COc1ccccc1N1CCN(c2cc3c(cc2N)c(=O)c(C(=O)O)cn3C)CC1 | 7.45 µg/mL (≈ 18.2 µM) | – | – | > 7.45 µg/mL | > 7.45 µg/mL | <1 | – | <1 | – | – | Protection [28]: <27%; Protection [29]: <21%
9 | – | – | – | Cn1cc(C(=O)O)c(=O)c2cc(N)c(N3CCN(c4ccccc4F)CC3)cc21 | > 125 µg/mL | – | – | > 125 µg/mL | > 125 µg/mL | – | – | – | – | – | Protection [30]: <30%; Protection [31]: <31%
10 | – | – | – | COc1ccccc1N1CCN(c2cc3c(cc2N)c(=O)c(C(=O)O)cn3C2CC2)CC1 | 10.3 µg/mL (≈ 23.8 µM) | – | – | > 10.3 µg/mL | > 10.3 µg/mL | <1 | – | <1 | – | – | Protection [32]: <24%; Protection [17]: 10%
